Columns and labels:
[1] = DPPH free radical scavenging assay; details: DPPH 150 μM in MeOH, 30 min, room temperature, absorbance at 490 nm; vitamin C as positive control
Procedure: The assay for DPPH radical scavenging activity was measured by a reported method, with slight modifications. Firstly, 180 μL of DPPH^· (150 μM in MeOH) and 20 μL of a series of test compound solutions (31.2, 62.5, 125, 250, 500 μM in MeOH) were mixed in each well of a 96-well microtiter plate. The reaction was measured by determination of the absorbance Asample+DPPH· using a microtiter plate reader at 490 nm after shaking for 30 min at room temperature in the dark. Twenty μL test samples of each concentration with 180 μL of MeOH were used as the blank measurement for each tested compound, and the absorbance was recorded as Asample. The absorbance of the mixture of 20 μL of MeOH and 180 μL of DPPH^· was recorded as ADPPH·, and the absorbance of the 200 μL of MeOH was measured as Ablank. The natural antioxidant vitamin C was used as a positive control. Calculations of the DPPH^· scavenging activity was performed according to the following equation: scavenging activity (%) = [1 − (Asample+DPPH· − Asample)/(ADPPH· − Ablank)] × 100%. All measurements were done in triplicate from two independent experiments. The reported EC50 was the average value of two independent experiments.

| EC50 [1] [µM] | melting point [°C] | Structure (SMILES) |
| --- | --- | --- |
|  | 179.4 to 181.4 | CC(C)[C@H]1Oc2c(ccc3c2C(=O)O[C@H](C)C3)[C@H]1O [Compound 2, asperisocoumarin B] |
| 130 |  | CC(C)c1cc2ccc3c(c2o1)C(=O)O[C@H](C)C3 [Compound 3, (R)-2-isopropyl-7-methyl-6,7-dihydro-9H-furo[3,2-h]isochromen-9-one] |

The next lines start with the compound.

| Structure (SMILES) | EC50 [1] [µM] | melting point [°C] |
| --- | --- | --- |
| CC(C)=C1Oc2c(ccc3cc(C)oc(=O)c23)C1=O [Compound 1, 7-methyl-2-(propan-2-ylidene)-9H-furo[3,2-h]isochromene-3,9(2H)-dione] | 125 |  |
| COc1cc2c(c(O)c1COCc1c(OC)cc3c(c1O)C(=O)OCC3)C(=O)OCC2 [Compound 6, asperisocoumarin F] |  | 201.1 to 203 |
| O=C1O[C@H]([C@@H](O)CO)C(O)=C1O [vitamin C, reference compound] | 35 |  |
